Results reported in patent US8183239B2, “Substituted piperazines and piperidines as modulators of the neuropeptide Y2 receptor” (Janssen Pharmaceutica NV, priority 2005, dated 2012).
Like-named read-outs stand apart in the source and are kept apart here.

Molecular target: T1, Y2 receptors (Homo sapiens, UniProt P49146)
T1 construct: endogenous in cells; host or cells: KAN-Ts cells (membranes)
T1 sequence (P49146 1-381): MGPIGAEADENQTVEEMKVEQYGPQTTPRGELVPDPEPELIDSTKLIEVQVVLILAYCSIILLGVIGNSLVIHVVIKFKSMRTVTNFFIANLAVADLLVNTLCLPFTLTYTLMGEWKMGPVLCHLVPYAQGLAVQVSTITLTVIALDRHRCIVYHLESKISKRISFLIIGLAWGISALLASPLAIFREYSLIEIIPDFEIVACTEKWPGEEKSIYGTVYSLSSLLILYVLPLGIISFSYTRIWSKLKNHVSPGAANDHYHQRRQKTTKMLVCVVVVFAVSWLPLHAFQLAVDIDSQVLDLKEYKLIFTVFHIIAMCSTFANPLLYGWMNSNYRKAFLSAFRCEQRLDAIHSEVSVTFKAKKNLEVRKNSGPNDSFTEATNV
Experiment: Radioligand binding assay ([125I]PYY, KAN-Ts cell membranes)
Conditions: Table 1, [125I]PYY 80 pM, average of results
Protocol: Radioligand Binding Assay
KAN-Ts endogenously expressing Y2 receptors were used for the radioligand binding assay. Cells were grown to confluence on 150 cm^2 tissue culture plates, washed with phosphate-buffered saline (PBS), and scraped into 50 mL tubes. After centrifugation, the supernatant was aspirated, and the pellets frozen and stored at −80° C. Thawed pellets were homogenized with a polytron tissue grinder for 15 sec in 20 mM Tris-HCl, 5 mM EDTA. The homogenate was centrifuged at 800×g for 5 min and the collected supernatant was recentrifuged at 25000×g for 25 min. The resulting pellet was resuspended in binding buffer (20 mM HEPES, 120 mM NaCl, 0.22 mM KH2PO4, 1.3 mM CaCl2, 0.8 mM MgSO4). Membranes were incubated with [^125I]PYY (80 pM) in the presence or absence of test compound for 1 h at rt. The reaction was stopped by filtration through GF/C filter plates pre-soaked in 0.3% polyethylenimine and subsequently washed with Tris 50 mM, 5 mM EDTA buffer. Plates were dried for 1 h in a 55° C. oven, scintillation fluid was added and the radioactivity was counted in a Packard TopCount. Specific binding to the NPY receptor subtypes was determined by radioactivity that was bound in the presence of […]. Each binding experiment was repeated three to eight times, each in duplicate. IC50 values (i.e. concentration of unlabelled peptide or antagonist required to compete for 50% of specific binding to the radioligand) were calculated using the GraphPad Prism software (GraphPad Software Inc., San Diego Calif.) with a fit to a sigmoidal dose response curve. Data for compounds tested are presented in Tables 1 and 2 as an average of results obtained.

Row | Compound | IC50 (read-out: IC50) [nM] | IC50 (IC50 (nM)) [nM]
1 | CCNC(=O)C(c1ccccc1)N1CCN(c2ccc(NC(=O)N[C@@H](C)c3ccc(F)cc3)cc2F)CC1 (stereo partly drawn) [Example 28, N-Ethyl-2-[4-(2-fluoro-4-{3-[(S)-1-(4-fluoro-phenyl)-ethyl]-ureido}-phenyl)-piperazin-1-yl]-2-phenyl-acetamide] | 2900 | 
2 | CCN(CC)C(=O)C(c1ccccc1)N1CCN(c2ccc(NC(=O)[C@H]3CCOC3)cc2F)CC1 (stereo partly drawn) [Example 29, (S)-Tetrahydro-furan-3-carboxylic acid {4-[4-(diethylcarbamoyl-phenyl-methyl)-piperazin-1-yl]-3-fluoro-phenyl}-amide] | 65 | 
3 | CCN(CC)C(=O)C(c1ccccc1)N1CCN(c2ccc(N(CC)C(=O)N(CC)c3c(C)noc3C)cc2F)CC1 (stereo not drawn) [Example 30, 2-(4-{4-[3-(3,5-Dimethyl-isoxazol-4-yl)-1,3-diethyl-ureido]-2-fluoro-phenyl}-piperazin-1-yl)-N,N-diethyl-2-phenyl-acetamide] | 570 | 
4 | CCN(CC)C(=O)C(c1ccccc1)N1CCN(c2ccc(C(=O)NCc3c(C)noc3C)cc2F)CC1 (stereo not drawn) [Example 31, 4-[4-(Diethylcarbamoyl-phenyl-methyl)-piperazin-1-yl]-N-(3,5-dimethyl-isoxazol-4-ylmethyl)-3-fluoro-benzamide] | 24 | 
5 | CCC(CC)C(=O)N(c1ccccc1)C1CCN(c2ccc(NC(=O)Nc3c(C)noc3C)cc2F)CC1 [Example 32, N-(1-{4-[3-(3,5-Dimethyl-isoxazol-4-yl)-ureido]-2-fluoro-phenyl}-piperidin-4-yl)-2-ethyl-N-phenyl-butyramide] |  | 180
6 | CCC(CC)C(=O)Nc1ccc(N2CCC(N(C(=O)C(CC)CC)c3ccccc3)CC2)c(F)c1 [Example 33, 2-Ethyl-N-{1-[4-(2-ethyl-butyrylamino)-2-fluoro-phenyl]-piperidin-4-yl}-N-phenyl-butyramide] |  | 180
7 | CCC(CC)C(=O)Nc1ccc(N2CCN(C(C(=O)OC)c3cccc(F)c3)CC2)c(F)c1 (stereo not drawn) [Example 34, {4-[4-(2-Ethyl-butyrylamino)-2-fluoro-phenyl]-piperazin-1-yl}-(3-fluoro-phenyl)-acetic acid methyl ester] |  | 40
8 | CCC(CC)C(=O)Nc1ccc(N2CCN(C(C(=O)N(CC)CC)c3cccc(F)c3)CC2)c(F)c1 (stereo not drawn) [Example 35, N-(4-{4-[Diethylcarbamoyl-(3-fluoro-phenyl)-methyl]-piperazin-1-yl}-3-fluoro-phenyl)-2-ethyl-butyramide] | 33 | 
9 | CCC(CC)C(=O)Nc1ccc(N2CCN(C(C(=O)OC)c3ccc(C#N)cc3)CC2)c(F)c1 (stereo not drawn) [Example 36, (4-Cyano-phenyl)-{4-[4-(2-ethyl-butyrylamino)-2-fluoro-phenyl]-piperazin-1-yl}-acetic acid methyl ester] | 210 | 
10 | CCC(CC)C(=O)Nc1ccc(N2CCN(C(C(=O)OC)c3cccc(Cl)c3)CC2)c(F)c1 (stereo not drawn) [Example 37, (3-Chloro-phenyl)-{4-[4-(2-ethyl-butyrylamino)-2-fluoro-phenyl]-piperazin-1-yl}-acetic acid methyl ester] | 56 | 
11 | CCC(CC)C(=O)Nc1ccc(N2CCN(C(C(=O)OC)c3cccc(F)c3F)CC2)c(F)c1 (stereo not drawn) [Example 38, (2,3-Difluoro-phenyl)-{4-[4-(2-ethyl-butyrylamino)-2-fluoro-phenyl]-piperazin-1-yl}-acetic acid methyl ester] | 440 | 
12 | COC(=O)C(c1ccccc1)N1CCN(c2ccc(NC(=O)c3ccccc3C)cc2Cl)CC1 (stereo not drawn) [Example 39, {4-[2-Chloro-4-(2-methyl-benzoylamino)-phenyl]-piperazin-1-yl}-phenyl-acetic acid methyl ester] | 800 | 
13 | CCC(CC)C(=O)Nc1cc(F)c(N2CCN(C(C(=O)OC)c3ccccc3)CC2)c(F)c1 (stereo not drawn) [Example 40, {4-[4-(2-Ethyl-butyrylamino)-2,6-difluoro-phenyl]-piperazin-1-yl}-phenyl-acetic acid methyl ester] | 110 | 
14 | CCC(CC)C(=O)Nc1cc(Cl)c(N2CCN(C(C(=O)OC)c3ccccc3)CC2)c(Cl)c1 (stereo not drawn) [Example 41, {4-[2,6-Dichloro-4-(2-ethyl-butyrylamino)-phenyl]-piperazin-1-yl}-phenyl-acetic acid methyl ester] | 77 | 
15 | CCNC(=O)C(c1ccccc1)N1CCN(c2ccc(NC(=O)C(CC)CC)c(F)c2)CC1 (stereo not drawn) [Example 42, 2-Ethyl-N-{4-[4-(ethylcarbamoyl-phenyl-methyl)-piperazin-1-yl]-2-fluoro-phenyl}-butyramide] | 4830 | 
16 | CCNC(=O)C(c1ccccc1)C1CCN(c2ccc(NC(=O)C(CC)CC)cc2C#N)CC1 (stereo not drawn) [Example 43, N-{3-Cyano-4-[4-(ethylcarbamoyl-phenyl-methyl)-piperidin-1-yl]-phenyl}-2-ethyl-butyramide] | 14 | 
17 | CCC(CC)C(=O)Nc1ccc(N2CCN(C(C(=O)OC)c3ccccc3)CC2)c(F)c1 (stereo not drawn) [Example 44, {4-[4-(2-Ethyl-butyrylamino)-2-fluoro-phenyl]-piperazin-1-yl}-phenyl-acetic acid methyl ester] | 131 | 
18 | COC(=O)C(c1ccccc1)N1CCN(c2ccc(NC(=O)C3Cc4ccccc43)cc2)CC1 (stereo not drawn) [Example 45, (4-{4-[(Bicyclo[4.2.0]octa-1 (6),2,4-triene-7-carbonyl)-amino]-phenyl}-piperazin-1-yl)-phenyl-acetic acid methyl ester] | 4000 | 
19 | COC(=O)C(c1ccccc1)N1CCN(c2ccc(NC(=O)c3ccccc3I)cc2)CC1 (stereo not drawn) [Example 46, {4-[4-(2-Iodo-benzoylamino)-phenyl]-piperazin-1-yl}-phenyl-acetic acid methyl ester] | 6000 | 
20 | COC(=O)C(c1ccccc1)N1CCN(c2ccc(NC(=O)c3ccccc3)cc2)CC1 (stereo not drawn) [Example 47, [4-(4-Benzoylamino-phenyl)-piperazin-1-yl]-phenyl-acetic acid methyl ester] | 10000 | 
21 | COC(=O)C(c1ccccc1)N1CCN(c2ccc(NC(=O)c3ccccc3C3CCCCC3)cc2)CC1 (stereo not drawn) [Example 49, {4-[4-(2-Cyclohexyl-benzoylamino)-phenyl]-piperazin-1-yl}-phenyl-acetic acid methyl ester] | 1300 | 
22 | COC(=O)C(c1ccccc1)N1CCN(c2ccc(NC(=O)c3ccccc3C)cc2)CC1 (stereo not drawn) [Example 50, {4-[4-(2-Methyl-benzoylamino)-phenyl]-piperazin-1-yl}-phenyl-acetic acid methyl ester] | 1800 | 
23 | CCc1ccccc1C(=O)Nc1ccc(N2CCN(C(C(=O)OC)c3ccccc3)CC2)cc1 (stereo not drawn) [Example 51, {4-[4-(2-Ethyl-benzoylamino)-phenyl]-piperazin-1-yl}-phenyl-acetic acid methyl ester] | 1850 | 
24 | COC(=O)C(c1ccccc1)N1CCN(c2ccc(NC(=O)c3ccccc3C(C)C)cc2)CC1 (stereo not drawn) [Example 52, {4-[4-(2-Isopropyl-benzoylamino)-phenyl]-piperazin-1-yl}-phenyl-acetic acid methyl ester] | 1400 | 
25 | COC(=O)C(c1ccccc1)N1CCN(c2ccc(NC(=O)c3ccccc3Cl)cc2)CC1 (stereo not drawn) [Example 53, {4-[4-(2-Chloro-benzoylamino)-phenyl]-piperazin-1-yl}-phenyl-acetic acid methyl ester] | 12600 | 
26 | COC(=O)C(c1ccccc1)N1CCN(c2ccc(NC(=O)c3ccccc3OC)cc2)CC1 (stereo not drawn) [Example 56, {4-[4-(2-Methoxy-benzoylamino)-phenyl]-piperazin-1-yl}-phenyl-acetic acid methyl ester] | 4000 | 
27 | CNc1ccccc1C(=O)Nc1ccc(N2CCN(C(C(=O)OC)c3ccccc3)CC2)cc1 (stereo not drawn) [Example 58, {4-[4-(2-Methylamino-benzoylamino)-phenyl]-piperazin-1-yl}-phenyl-acetic acid methyl ester] | 3000 | 
28 | COC(=O)C(c1ccccc1)N1CCN(c2ccc(NC(=O)C3CCCC3)cc2)CC1 (stereo not drawn) [Example 59, {4-[4-(Cyclopentanecarbonyl-amino)-phenyl]-piperazin-1-yl}-phenyl-acetic acid methyl ester] | 13100 | 
29 | CCC(CC)C(=O)Nc1ccc(N2CCN(C(C(=O)OC)c3ccccc3)CC2)cc1 (stereo not drawn) [Example 60, {4-[4-(2-Ethyl-butyrylamino)-phenyl]-piperazin-1-yl}-phenyl-acetic acid methyl ester] | 527 | 
30 | COC(=O)C(c1ccccc1)N1CCN(c2ccc(NC(=O)c3ccccc3)cc2F)CC1 (stereo not drawn) [Example 61, [4-(4-Benzoylamino-2-fluoro-phenyl)-piperazin-1-yl]-phenyl-acetic acid methyl ester] | 2500 | 
